Source: US6855730B2, “3-methylidenyl-2-indolinone modulators of protein kinase” (Sugen, Inc., priority 1998, dated 2005)
Where two headings read alike, the source gives them in different places.

Columns and labels:
src protein kinase = target: T1, src protein kinase (Gallus gallus, UniProt P00523); assay: Biochemical SRC assay (phosphorylation of biotinylated peptide); details: read-out: bio src IC50
T1 construct: host or cells: Schizosaccharomyces pombe SP200
Method: This assay is used to determine src protein kinase activity measuring phosphorylation of a biotinylated peptide as the readout.
Yeast transformed with src (Sugen, Inc., Redwood City, Calif.). • b. Cell lysates: Yeast cells expressing src are pelleted, washed once with water, re-pelleted and stored at −80° C. until use. • c. N-terminus biotinylated [sequence] is prepared by standard procedures well known to those skilled in the art. • d. DMSO: Sigma, St. Louis, Mo. • e. […] Vecastain ELITE ABC reagent: Vector, Burlingame, Calif. • h. […] S. Pombe strain SP200 (h-s leul.32 ura4 ade210) is grown as described and transformations are pRSP expression plasmids are done by the lithium acetate method (Superti-Furga, supra). Cells are grown in the presence of 1 μM thiamine to repress expression from the nmtl promoter or in the absence of thiamine to induce expression. • i. […] Turbo TMB-ELISA peroxidase substrate: Pierce Chemical.
Buffer Solutions • a. PBS (Dulbecco's Phosphate-Buffered Saline): GIBCO PBS, GIBCO Cat. #450-1300EB. • b. Blocking Buffer: 5% Non-fat milk (Carnation) in PBS. • c. Carbonate Buffer: Na2CO4 from Fischer, Cat. # S495, make up 100 mM stock solution. • d. Kinase Buffer: 1.0 ml (from 1M stock solution) MgCl2, 0.2 ml (from a 1M stock solution) MnCl2, 0.2 ml (from a 1M stock solution) DTT, 5.0 ml (from a 1M stock solution) HEPES, 0.1 ml TX-100, bring to 10 ml total volume with MilliQ H2O. • e. […] NaCl: Fischer Cat. # S271-10, Make up 5M stock solution with MilliQ H2O. • i. […] MgCl2: Fischer Cat. # M33-500, make up 1M stock solution with MilliQ H2O. • k. […] MnCl2: Fischer Cat. # M87-100, make up 1M stock solution with MilliQ H2O. • n. DTT: -Fischer Cat. # BP172-5. • o. […] Kinase Reaction Mixture: Amount per assay plate (100 wells): 1.0 ml Kinase Buffer, 200 λg GST-ζ, bring to final volume of 8.0 ml with MilliQ H2O. • q. […] Then add 1 drop of reagent B. Put tube on orbital shaker at room temperature and mix for 30 minutes.
Preparation of src Coated ELISA Plate. • 1. Coat ELISA plate with 0.5 μg/well anti-src mab in 100 μl of pH 9.6 sodium carbonate buffer, hold at 40° C. overnight. • 2. Wash wells once with PBS. • 3. […] Wash plate 5× with PBS. • 5. Add 10 μg/well of src transformed yeast lysates diluted in Lysis Buffer (0.1 ml total volume per well). (Amount of lysate may vary between batches.) Shake plate for 20 minutes at room temperature.
Preparation of Phosphotyrosine Antibody-coated ELISA Plate. • 1. 4G10 plate: coat 0.5 μg/well 4G10 in 100 μl PBS overnight at 4° C. and block with 150 μl of 5% milk in PBS for 30 minutes at room temperature.
Kinase Assay Procedure. • 1. Remove unbound proteins from plates and wash plates 5× with PBS. • 2. […] Wash plate 5× with TBST. • 10. Incubate with Vectastain ELITE ABC reagent (100 μl/well) for 30 min. at room temperature. • 11. Wash the wells 5× with TBST. • 12. Develop with Turbo TMB.

[1] = target: T2, 3T3 cell line genetically engineered to express human PDGF-R (Homo sapiens, UniProt P09619); assay: PDGF-induced BrdU incorporation assay; type: cell-based
T2 construct: expressed in transfected cells; host or cells: 3T3
Method: The general procedure is as follows: a compound is introduced to cells expressing the test kinase, either naturally or recombinantly, for a selected period of time after which, if the test kinase is a receptor, a ligand known to activate the receptor is added. […] The cellular/biologic assays described herein measure the amount of DNA made in response to activation of a test kinase, which is a general measure of a proliferative response. The general procedure for this assay is as follows: a compound is introduced to cells expressing the test kinase, either naturally or recombinantly, for a selected period of time after which, if the test kinase is a receptor, a ligand known to activate the receptor is added. After incubation at least overnight, a DNA labeling reagent such as Bromodeoxyuridine (BrdU) or 3H-thymidine is added. The amount of labeled DNA is detected with either an anti-BrdU antibody or by measuring radioactivity and is compared to control cells not contacted with a test compound.
PDGF-Induced BrdU Incorporation Assay
Protocol • (1) Cells are seeded at 8000 cells/well in DMEM, 10% CS, 2mM Gln in a 96 well plate. […] The negative control wells receive serum free DMEM with 0.1% BSA only, the positive control cells receive the ligand (PDGF) but no test compound. […] FixDenat solution is added (50 μ/well) and the plates are incubated at room temperature for 45 minutes on a plate shaker. • (6) The FixDenat solution is thoroughly removed by decanting and tapping the inverted plate on a paper towel. Milk is added (5% dehydrated milk in PBS, 200 μ/well) as a blocking solution and the plate is incubated for 30 minutes at room temperature on a plate shaker. • (7) The blocking solution is removed by decanting and the wells are washed once with PBS. Anti-BrdU-POD solution (1:100 dilution in PBS, 1% BSA) is added (100 μl/well) and the plate is incubated for 90 minutes at room temperature on a plate shaker. • (8) The antibody conjugate is thoroughly removed by decanting and rinsing the wells 5 times with PBS, and the plate is dried by inverting and tapping on a paper towel. • (9) TMB substrate solution is added (100 μl/well) and incubated for 20 minutes at room temperature on a plate shaker until color development is sufficient for photometric detection. • (10) The absorbance of the samples are measured at 410 nm (in “dual wavelength” mode with a filter reading at 490 nm, as a reference wavelength) on a Dynatech ELISA plate reader.

EGFR = EGFR (Homo sapiens, UniProt P00533); assay: Biochemical EGFR assay (ELISA, A431 cell lysate); set-up: A431 cell lysate (Screening Lab, SUGEN, Inc.); host or cells: A431; details: read-out: bio EGFr IC50
Chain of EGFR (P00533 25-1210): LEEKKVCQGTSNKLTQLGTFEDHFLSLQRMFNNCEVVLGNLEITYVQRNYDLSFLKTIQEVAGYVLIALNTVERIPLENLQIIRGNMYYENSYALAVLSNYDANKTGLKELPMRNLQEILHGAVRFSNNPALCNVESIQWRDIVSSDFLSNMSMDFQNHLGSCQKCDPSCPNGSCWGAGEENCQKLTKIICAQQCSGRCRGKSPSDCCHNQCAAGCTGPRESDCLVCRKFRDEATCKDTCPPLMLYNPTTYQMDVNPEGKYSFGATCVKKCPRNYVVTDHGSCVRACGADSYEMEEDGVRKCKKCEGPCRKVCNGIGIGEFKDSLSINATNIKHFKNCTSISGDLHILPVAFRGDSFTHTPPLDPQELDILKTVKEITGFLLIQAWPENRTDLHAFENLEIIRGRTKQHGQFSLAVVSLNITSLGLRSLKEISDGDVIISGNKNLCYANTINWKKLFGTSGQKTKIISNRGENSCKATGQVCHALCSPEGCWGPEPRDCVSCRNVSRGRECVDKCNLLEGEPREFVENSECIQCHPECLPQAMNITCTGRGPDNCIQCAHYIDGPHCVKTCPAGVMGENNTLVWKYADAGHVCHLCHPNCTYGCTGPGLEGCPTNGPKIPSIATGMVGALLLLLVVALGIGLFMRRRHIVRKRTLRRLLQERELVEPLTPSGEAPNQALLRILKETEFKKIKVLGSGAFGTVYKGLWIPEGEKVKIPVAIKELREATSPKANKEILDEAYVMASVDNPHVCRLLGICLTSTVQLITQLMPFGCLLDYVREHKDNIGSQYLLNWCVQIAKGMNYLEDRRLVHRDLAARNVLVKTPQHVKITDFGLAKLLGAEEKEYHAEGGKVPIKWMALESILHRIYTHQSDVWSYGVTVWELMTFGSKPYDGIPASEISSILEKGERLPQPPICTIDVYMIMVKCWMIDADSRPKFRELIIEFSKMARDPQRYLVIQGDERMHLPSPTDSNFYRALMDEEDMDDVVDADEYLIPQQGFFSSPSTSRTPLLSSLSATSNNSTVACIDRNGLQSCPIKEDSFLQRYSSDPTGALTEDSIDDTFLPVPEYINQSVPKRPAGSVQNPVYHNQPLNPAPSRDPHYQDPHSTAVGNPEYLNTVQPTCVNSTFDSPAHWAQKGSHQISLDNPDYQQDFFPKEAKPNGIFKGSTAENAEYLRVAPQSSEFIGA
Method in brief: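 EGFR captured from A431 cell lysate onto anti-EGFR-coated plates, then incubated with test compound for 30 min at room temperature. Tyrosine phosphorylation with ATP/MnCl2 was stopped with EDTA after 5 min and detected by anti-phosphotyrosine ELISA with peroxidase/ABTS read-out.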

[2] = read-out: PDGF-Induced BrdU Incorp. IC50

| Structure (SMILES) | IC50 (src protein kinase) | IC50 [1, 2] | IC50 (EGFR) | IC50 [1] |
| --- | --- | --- | --- | --- |
| O=C(O)CCc1c(/C=C2\C(=O)Nc3cc(Cl)ccc32)[nH]c2c1CCCC2 [Example 195, 3-[2-(6-Chloro-2-oxo-1,2-dihydroindol-3-ylidenemethyl)-4,5,6,7-tetrahydro-1H-indol-3-yl]-propionic acid] | 0.26 µM | 3.7 µM | 36.5 µM | – |
| CN(C)CCCc1c(/C=C2\C(=O)Nc3ccccc32)[nH]c2c1CCCC2 [Example 198, 3-[3-(3-Dimethylaminopropyl)-4,5,6,7-tetrahydro-1H-indol-2-ylmethylene]-1,3-dihydroindol-2-one] | 2.34 µM | 4.2 µM | > 100 µM | – |
| O=C(CCc1c(/C=C2\C(=O)Nc3ccccc32)[nH]c2c1CCCC2)NCCN1CCOCC1 [Example 202, N-(2-Morpholin-4-ylethyl)-3-[2-(2-oxo-1,2-dihydroindol-3-ylidenemethyl)-4,5,6,7-tetrahydro-1H-indol-3-yl]-propionamide] | > 50 µM | 5.2 µM | > 100 µM | – |
| Cc1c[nH]c(/C=C2\C(=O)Nc3ccccc32)c1CCC(=O)O [Example 215, 3-[4-Methyl-2-(2-oxo-1,2-dihydroindol-3-ylidenemethyl)-1H-pyrrol-3-yl]-propionic acid] | 5.59 µM | – | > 100 µM | 20 µM |
| COc1ccc2c(c1)NC(=O)/C2=C\c1[nH]cc(C)c1CCC(=O)O [Example 217, 3-[2-(6-Methoxy-2-oxo-1,2-dihydroindol-3-ylidenemethyl)-4-methyl-1H-pyrrol-3-yl]-propionic acid] | 3.68 µM | 8.7 µM | > 100 µM | – |
| Cc1c[nH]c(C=C2C(=O)Nc3cc(Cl)ccc32)c1CCC(=O)O [Example 219, 3-[2-(6-Chloro-2-oxo-1,2-dihydroindol-3-ylidenemethyl)-4-methyl-1H-pyrrol-3-yl]-propionic acid] | 0.08 µM | 7.9 µM | 98.1 µM | – |
| COc1ccc2c(c1)/C(=C/c1[nH]cc(C)c1CCC(=O)O)C(=O)N2 [Example 222, 3-[2-(5-Methoxy-2-oxo-1,2-dihydroindol-3-ylidenemethyl)-4-methyl-1H-pyrrol-3-yl]-propionic acid] | 5.77 µM | > 50 µM | > 100 µM | – |
